Measurements as given in patent US20130150377A1, “Tetrahydropyridinyl and Dihydropyrrolyl Compounds and the Use Thereof” (SHIONOGI & CO., LTD., priority 2008, published 2013).

Columns and labels:
[1] = target: T1, N-type calcium channel (NTCC) (Homo sapiens, UniProt Q00975); assay: FLIPR calcium mobilization assay for N-type calcium channel (differentiated IMR32 cells); type: cell-based; details: N-type calcium channel blockers, calcium mobilization in vitro assay
T1 construct: endogenous in cells; host or cells: differentiated IMR32 cells (ATCC)
Experimental: Cell maintenance and differentiation. Unless noted otherwise, cell culture reagents were purchased from Mediatech of Herndon, Md. IMR32 cells (American Type Culture Collection, ATCC, Manassas, Va.) were routinely cultured in growth medium consisting of minimum essential medium containing 10% fetal bovine serum (FBS, Hyclone, Logan, Utah), 100 U/mL penicillin, 100 μg/mL streptomycin, 2 mM L-glutamine, 1 mM sodium pyruvate, and 1×MEM non-essential amino acids. 80-90% confluent flasks of cells were differentiated using the following differentiation medium: Growth medium plus 1 mM dibutyryl cyclic AMP (Sigma, St. Louis, Mo.), and 2.5 μM bromodeoxyuridine (Sigma). Cells were differentiated for 8 days by replacing differentiation medium every 2-3 days.
FLIPR Calcium Mobilization Assay for N-type Calcium Channel.
One day prior to performing this assay, differentiated IMR32 cells were treated with 1× CellStripper, and seeded on poly-D-lysine-coated 96-well clear-bottom black plates (Becton Dickinson, Franklin Lakes, N.J.) at 200,000 cells/well. On the day of the assay, the cell plates were washed with IMR32 buffer (127 mM NaCl, 1 mM KCl, 2 mM MgCl2, 700 μM NaH2PO4, 5 mM CaCl2, 5 mM NaHCO3, 8 mM HEPES, 10 mM glucose, pH 7.4), then pre-stimulated with KCl and loaded as follows: […] of IMR32 buffer, 0.05 mL of each compound tested diluted in IMR32 buffer containing 20 μM nitrendipine (Sigma), and 0.1 mL KCl dissolved in IMR32 buffer, plus Fluo-4 were added (3 μM final concentration, Molecular Probes, Eugene, Oreg.). Final test compound concentrations ranged from about 846 pM to about 17 μM, final nitrendipine concentration was 5 μM, and final KCl concentration was 90 mM. After 1 hour, the cells were washed twice with 0.05 mL of each compound tested in nitrendipine-containing IMR32 buffer (no KCl or Fluo-4), and then replaced with 0.1 mL of each compound tested in nitrendipine-containing IMR32 buffer. Plates were then transferred to a Fluorimetric Imaging Plate Reader (FLIPR^96, Molecular Devices, Inc., Sunnyvale, Calif.) for assay. The FLIPR measured basal Fluo-4 fluorescence for 315 seconds (i.e., 5 minutes and 15 seconds), then added 0.1 mL KCl agonist dissolved in IMR32 buffer and measured fluorescence for another 45 seconds. Final test compound concentrations on the cells after FLIPR read ranged from about 846 pM to about 17 μM, final nitrendipine concentration was 5 μM, and final KCl concentration was 90 mM. Data were collected over the entire time course and analyzed using Excel, Graph Pad Prism (version 3.02, Graph Pad, San Diego, Calif.), or an in-house non-linear regression analysis software.

[2] = target: T2, L-type calcium channel (LTCC) subunits (α1c, α2δ, and β1) (Rattus norvegicus, UniProt P22002); assay: FLIPR calcium mobilization assay for L-type calcium channel (HEK293 cells expressing recombinant LTCC subunits); type: cell-based; details: calcium mobilization assay for L-type calcium channel blocking activity
T2 construct: expressed in transfected cells; pcDNA6.2DEST α1c, pcDNA3.2DEST β1, pcDNA3.1-Zeo α2δ)
Experimental: Recombinant human embryonal kidney cells (HEK293, ATCC) stably transfected with either N-type calcium channel (NTCC) subunits (α1b, α28, and β3) or L-type calcium channel (LTCC) subunits (α1c, α2δ, and […]) were routinely cultured in growth medium consisting of Dulbecco's Modified Eagles Medium containing 10% FBS, 100 U/mL penicillin, 100 μg/mL streptomycin, 4 mM L-glutamine, 500 μg/mL geneticin (G418), 20 μg/mL Blasticidin S (InVivogen, San Diego, Calif.) and 500 μg/mL zeocin (InVivogen).
FLIPR Calcium Mobilization Assay for L-type Calcium Channel.
One day prior to performing this assay, HEK293 cells stably expressing recombinant rat L-type calcium channel (LTCC) subunits (α1c, α2δ, and β1) were trypsinized, then seeded on poly-D-lysine-coated 96-well clear-bottom black plates (Becton Dickinson, Franklin Lakes, N.J.) at 75,000 cells/well. […] The FLIPR measured basal Fluo-4 fluorescence for 15 seconds, then added 0.05 mL of each compound tested diluted in LTCC assay buffer at final concentrations ranging from about 846 pM to about 17 μM. Fluo-4 fluorescence was then measured for 5 minutes. 0.1 mL KCl agonist dissolved in LTCC assay buffer was, then added to the cells to produce a final concentration of 90 mM KCl, and fluorescence was measured for another 45 seconds. […]

T1 sequence (Q00975 whole entry): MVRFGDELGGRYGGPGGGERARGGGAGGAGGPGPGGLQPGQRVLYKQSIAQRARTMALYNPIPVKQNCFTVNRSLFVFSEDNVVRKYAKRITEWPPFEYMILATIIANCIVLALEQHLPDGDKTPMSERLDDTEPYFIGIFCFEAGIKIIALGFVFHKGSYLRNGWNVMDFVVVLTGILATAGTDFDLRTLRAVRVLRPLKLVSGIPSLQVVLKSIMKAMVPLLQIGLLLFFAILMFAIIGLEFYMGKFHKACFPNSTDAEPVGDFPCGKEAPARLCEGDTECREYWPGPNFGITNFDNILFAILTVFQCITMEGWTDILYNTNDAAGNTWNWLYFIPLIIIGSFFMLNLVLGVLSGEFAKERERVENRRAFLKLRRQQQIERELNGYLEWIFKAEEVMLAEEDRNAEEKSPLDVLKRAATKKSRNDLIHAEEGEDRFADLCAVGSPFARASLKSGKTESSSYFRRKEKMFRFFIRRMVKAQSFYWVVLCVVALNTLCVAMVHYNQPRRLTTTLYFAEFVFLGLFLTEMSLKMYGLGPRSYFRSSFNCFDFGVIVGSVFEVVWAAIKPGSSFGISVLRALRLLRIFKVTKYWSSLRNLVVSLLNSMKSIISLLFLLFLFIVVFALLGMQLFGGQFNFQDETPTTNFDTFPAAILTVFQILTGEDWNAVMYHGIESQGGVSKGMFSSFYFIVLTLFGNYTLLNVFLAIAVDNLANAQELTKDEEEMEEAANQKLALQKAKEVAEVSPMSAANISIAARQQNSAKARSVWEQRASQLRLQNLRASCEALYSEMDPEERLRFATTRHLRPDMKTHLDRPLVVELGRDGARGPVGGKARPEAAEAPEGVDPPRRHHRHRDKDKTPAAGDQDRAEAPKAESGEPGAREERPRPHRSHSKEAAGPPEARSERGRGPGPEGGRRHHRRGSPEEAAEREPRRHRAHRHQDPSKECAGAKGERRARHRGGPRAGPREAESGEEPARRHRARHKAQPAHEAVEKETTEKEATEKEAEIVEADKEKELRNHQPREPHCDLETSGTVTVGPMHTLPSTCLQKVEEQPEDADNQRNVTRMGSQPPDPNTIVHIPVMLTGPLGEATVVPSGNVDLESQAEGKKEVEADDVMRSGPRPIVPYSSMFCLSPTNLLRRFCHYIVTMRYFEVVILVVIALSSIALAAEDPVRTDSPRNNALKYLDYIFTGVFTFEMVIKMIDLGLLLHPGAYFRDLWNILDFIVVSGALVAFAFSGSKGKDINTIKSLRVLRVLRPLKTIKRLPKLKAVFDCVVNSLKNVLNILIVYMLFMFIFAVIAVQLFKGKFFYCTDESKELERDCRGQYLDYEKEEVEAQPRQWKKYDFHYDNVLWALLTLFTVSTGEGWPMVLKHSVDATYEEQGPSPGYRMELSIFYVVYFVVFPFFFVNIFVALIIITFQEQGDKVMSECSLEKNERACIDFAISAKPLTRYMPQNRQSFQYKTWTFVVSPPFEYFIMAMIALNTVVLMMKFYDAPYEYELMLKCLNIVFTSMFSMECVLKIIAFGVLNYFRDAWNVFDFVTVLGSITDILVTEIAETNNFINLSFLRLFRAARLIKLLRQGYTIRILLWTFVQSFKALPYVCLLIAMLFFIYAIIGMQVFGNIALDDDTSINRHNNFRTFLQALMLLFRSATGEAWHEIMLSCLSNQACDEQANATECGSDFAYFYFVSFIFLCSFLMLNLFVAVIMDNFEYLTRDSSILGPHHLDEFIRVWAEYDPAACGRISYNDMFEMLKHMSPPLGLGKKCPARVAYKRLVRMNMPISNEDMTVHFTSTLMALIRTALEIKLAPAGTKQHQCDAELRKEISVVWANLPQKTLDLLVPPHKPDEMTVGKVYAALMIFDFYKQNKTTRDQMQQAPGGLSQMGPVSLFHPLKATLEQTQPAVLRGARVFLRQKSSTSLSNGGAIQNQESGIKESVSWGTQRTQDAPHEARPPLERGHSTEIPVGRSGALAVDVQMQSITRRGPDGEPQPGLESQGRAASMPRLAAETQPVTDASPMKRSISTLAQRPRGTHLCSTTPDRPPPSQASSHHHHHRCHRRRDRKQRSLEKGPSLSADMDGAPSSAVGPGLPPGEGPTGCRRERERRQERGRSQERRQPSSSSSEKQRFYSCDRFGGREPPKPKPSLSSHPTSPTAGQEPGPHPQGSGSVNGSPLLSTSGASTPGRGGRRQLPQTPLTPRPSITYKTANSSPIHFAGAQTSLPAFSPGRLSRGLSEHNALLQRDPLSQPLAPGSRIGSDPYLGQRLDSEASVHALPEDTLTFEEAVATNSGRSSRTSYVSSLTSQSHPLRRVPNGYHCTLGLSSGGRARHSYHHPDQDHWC
T1 sequence (P54289 25-956 partner limits assumed): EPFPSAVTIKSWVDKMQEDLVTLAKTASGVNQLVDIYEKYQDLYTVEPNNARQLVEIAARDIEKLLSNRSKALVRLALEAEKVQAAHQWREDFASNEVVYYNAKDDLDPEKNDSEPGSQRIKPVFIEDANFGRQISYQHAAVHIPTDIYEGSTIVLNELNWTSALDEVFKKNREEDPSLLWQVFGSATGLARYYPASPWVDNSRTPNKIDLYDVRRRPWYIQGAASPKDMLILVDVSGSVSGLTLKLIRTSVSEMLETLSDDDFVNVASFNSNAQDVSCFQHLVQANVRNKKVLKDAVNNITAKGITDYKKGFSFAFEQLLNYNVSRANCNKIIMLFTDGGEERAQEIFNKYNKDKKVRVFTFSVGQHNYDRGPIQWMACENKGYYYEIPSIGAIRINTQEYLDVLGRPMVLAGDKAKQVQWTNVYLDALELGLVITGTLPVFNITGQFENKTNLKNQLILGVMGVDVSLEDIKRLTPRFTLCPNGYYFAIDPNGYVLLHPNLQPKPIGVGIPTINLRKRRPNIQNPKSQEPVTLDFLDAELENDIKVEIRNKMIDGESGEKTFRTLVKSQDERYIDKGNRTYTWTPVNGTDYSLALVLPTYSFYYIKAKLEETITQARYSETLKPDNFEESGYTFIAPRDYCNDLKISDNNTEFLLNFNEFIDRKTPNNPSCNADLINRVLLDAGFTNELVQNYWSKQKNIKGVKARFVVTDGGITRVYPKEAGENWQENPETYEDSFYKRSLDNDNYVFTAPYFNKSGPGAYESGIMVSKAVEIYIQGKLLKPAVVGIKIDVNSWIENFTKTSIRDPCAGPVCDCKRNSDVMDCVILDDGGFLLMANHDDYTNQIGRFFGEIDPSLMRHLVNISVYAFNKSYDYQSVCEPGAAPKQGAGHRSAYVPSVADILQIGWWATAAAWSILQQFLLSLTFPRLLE
T1 sequence (P54289 957-1103 partner limits assumed): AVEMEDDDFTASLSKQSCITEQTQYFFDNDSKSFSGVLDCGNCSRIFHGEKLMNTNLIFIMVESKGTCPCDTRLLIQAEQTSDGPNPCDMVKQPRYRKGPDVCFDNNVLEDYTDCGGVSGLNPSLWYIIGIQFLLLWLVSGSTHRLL
T1 sequence (P54284 whole entry partner): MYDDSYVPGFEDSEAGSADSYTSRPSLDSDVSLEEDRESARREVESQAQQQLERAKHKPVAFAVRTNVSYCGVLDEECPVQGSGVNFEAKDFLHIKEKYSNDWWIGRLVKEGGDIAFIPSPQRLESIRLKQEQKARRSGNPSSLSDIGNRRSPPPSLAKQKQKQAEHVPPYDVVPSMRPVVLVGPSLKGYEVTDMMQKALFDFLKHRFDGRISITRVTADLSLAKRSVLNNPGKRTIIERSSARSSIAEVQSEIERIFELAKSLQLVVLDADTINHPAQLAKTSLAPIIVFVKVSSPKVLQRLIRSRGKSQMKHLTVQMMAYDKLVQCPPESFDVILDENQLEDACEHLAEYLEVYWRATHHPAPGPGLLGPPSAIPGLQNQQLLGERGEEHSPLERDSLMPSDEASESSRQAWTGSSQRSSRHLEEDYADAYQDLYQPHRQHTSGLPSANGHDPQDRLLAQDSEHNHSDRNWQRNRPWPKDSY

SMILES	IC50 [1] [nM]	IC50 [2] [nM]
O=C(NC1CC1)c1cccc(C2=CCN(Cc3ccc(OC(F)(F)F)cc3)CC2)n1 [Compound 9, 1′-(4-Trifluoromethoxybenzyl)-1′,2′,3′,6′-tetrahydro-[2,4′]bipyridinyl-6-carboxylic acid cyclopropylamide]	930	> 20000
O=C(NC1CC1)c1cccc(C2=CC(=O)N(S(=O)(=O)c3cccc(C(F)(F)F)c3)CC2)n1 [Compound 45, 6′-Oxo-1′-(3-trifluoromethylbenzenesulfonyl)-1′,2′,3′,6′-tetrahydro-[2,4′]bipyridinyl-6-carboxylic acid cyclopropylamide]	20	> 20000
